Experimental data from patent US12122804B2, “γ-aminobutyric acid modulator crystal form X, preparation method and application thereof” (SHENZHEN RENTAI […]., priority 2019, dated 2024).

Experiments:
[1] = Comparison of crystal form X with crystal form K (XRPD, FIG. 17; stability); format: physicochemical
[2] = Accelerated stability of the crystal form (XRPD comparison); format: physicochemical; details: 75% RH, 40° C., 5 days and 10 days, FIG. 15
Procedure: (§1) The crystal form X prepared in Example 5 is tested as follows.
(3) Accelerated stability: the test sample is placed in an environment having a humidity of 75% RH and a temperature of 40° C. for 5 days and 10 days, respectively, to test the stability of the crystal form.

[3] = High-temperature stability of the crystal form (XRPD comparison); format: physicochemical; details: 60° C., 5 days and 10 days, FIG. 14
Procedure: as §1
(2) High-temperature stability: the test sample is placed at a temperature of 60° C. for 5 days and 10 days, respectively, to test the stability of the crystal form.

[4] = High-humidity stability of the crystal form (XRPD comparison); format: physicochemical; details: 92.5% RH, 25° C., 5 days and 10 days, FIG. 16
Procedure: as §1
(4) High-humidity stability: the test sample is placed in an environment having a humidity of 92.5% RH and a temperature of 25° C. for 5 days and 10 days, respectively, to test the stability of the crystal form.

[5] = Light stability of the crystal form (XRPD comparison); format: physicochemical; details: 25° C., 4500 Lux, 5 days and 10 days, FIG. 13
Procedure: as §1
(1) Light stability: the test sample is placed in an environment having a temperature of 25° C. and a light condition of 4500 Lux for 5 days and 10 days, respectively, to test the stability of the crystal form.

[6] = assessment of data of WO2018039378A1: crystal transformation, XRPD at different temperatures; cited from earlier work

Compound: C[C@@]1(O)CC[C@H]2[C@H](CC[C@@H]3[C@@H]2CC[C@]2(C)[C@@H](C(=O)Cn4cc(C#N)cn4)CC[C@@H]32)C1 [crystal form X, 3α-hydroxy-3β-methyl-21-(4-cyano-1H-pyrazol-1′-yl)-19-nor-5β-pregnan-20-one]
- Stability relative to crystal form K [1]: better stability than the crystal form K
- Accelerated stability of the crystal form [2]: good accelerated stability
- High-temperature stability of the crystal form [3]: good high-temperature stability
- High-humidity stability of the crystal form [4]: good high-humidity stability
- Light stability of the crystal form [5]: good light stability

Compound: C[C@@]1(O)CC[C@H]2[C@H](CC[C@@H]3[C@@H]2CC[C@]2(C)[C@@H](C(=O)Cn4cc(C#N)cn4)CC[C@@H]32)C1 [crystal form A, 3α-hydroxy-3β-methyl-21-(4-cyano-1H-pyrazol-1′-yl)-19-nor-5β-pregnan-20-one]
- Crystal form stability (suitability as medicinal crystal form) [6]: unstable
